{"source": "the NIST ThermoML archive (doi:10.1016/j.jct.2007.09.010)", "key": {"[1]": {"assay": "refractive index (other wavelength) (dimensionless)", "details": "101.32 kPa, Liquid, Wavelength=632.8 nm, Standard Abbe refractometry"}, "[2]": {"assay": "refractive index (other wavelength) (dimensionless); xn = mol fraction of the nth substance listed", "details": "293.6 K, 101.32 kPa, Liquid, Wavelength=632.8 nm"}}, "note": "± gives the expanded uncertainty stated by the source."}
{"smiles": "N#Cc1ccccc1", "note": "[benzonitrile]", "values": [{"measurement": "refractive index", "setting": "[1]; 283.93 K", "result": "1.5294 ± 0.0004"}, {"measurement": "refractive index", "setting": "[1]; 285.77 K", "result": "1.5285 ± 0.0004"}, {"measurement": "refractive index", "setting": "[1]; 287.73 K", "result": "1.5276 ± 0.0004"}, {"measurement": "refractive index", "setting": "[1]; 289.74 K", "result": "1.5266 ± 0.0004"}, {"measurement": "refractive index", "setting": "[1]; 291.66 K", "result": "1.5256 ± 0.0004"}, {"measurement": "refractive index", "setting": "[1]; 293.65 K", "result": "1.5247 ± 0.0004"}]}
{"smiles": "N#Cc1ccccc1", "note": "[benzonitrile] + CCCCCCCCCCCC", "values": [{"measurement": "refractive index", "setting": "[2]; x1 = 0.0994", "result": "1.4247 ± 0.0007"}, {"measurement": "refractive index", "setting": "[2]; x1 = 0.195", "result": "1.4302 ± 0.0007"}, {"measurement": "refractive index", "setting": "[2]; x1 = 0.2945", "result": "1.436 ± 0.0007"}, {"measurement": "refractive index", "setting": "[2]; x1 = 0.3954", "result": "1.4434 ± 0.0007"}, {"measurement": "refractive index", "setting": "[2]; x1 = 0.4923", "result": "1.4507 ± 0.0007"}, {"measurement": "refractive index", "setting": "[2]; x1 = 0.5859", "result": "1.4608 ± 0.0007"}, {"measurement": "refractive index", "setting": "[2]; x1 = 0.6782", "result": "1.4711 ± 0.0007"}, {"measurement": "refractive index", "setting": "[2]; x1 = 0.768", "result": "1.4832 ± 0.0007"}, {"measurement": "refractive index", "setting": "[2]; x1 = 0.8871", "result": "1.5022 ± 0.0007"}]}
{"smiles": "CCCCCCCCCCCC", "note": "[dodecane]", "values": [{"measurement": "refractive index", "setting": "[1]; 282.19 K", "result": "1.4249 ± 0.0004"}, {"measurement": "refractive index", "setting": "[1]; 284.24 K", "result": "1.424 ± 0.0004"}, {"measurement": "refractive index", "setting": "[1]; 286.06 K", "result": "1.4233 ± 0.0004"}, {"measurement": "refractive index", "setting": "[1]; 288.08 K", "result": "1.4225 ± 0.0004"}, {"measurement": "refractive index", "setting": "[1]; 289.91 K", "result": "1.4217 ± 0.0004"}, {"measurement": "refractive index", "setting": "[1]; 291.91 K", "result": "1.4207 ± 0.0004"}, {"measurement": "refractive index", "setting": "[1]; 293.94 K", "result": "1.4199 ± 0.0004"}]}
